Test results taken from patent publication US20020197653A1, “System for detecting reporter gene expression” (priority 2001, published 2002).

Test system: NOS gene under the control of the Gal10 promoter (iNOS)
Assay: Small-molecule-induced expression of the NOS reporter gene in yeast, detected by bead-bound fluorescein-based NO sensor
Format: cell-based
Settings: yeast culture in 96-well plates, galactose final concentration 100 mM, TENTAGEL sensor beads, fluorescent microscope with CCD camera
Experimental: The lactone function of the sensor is effectively aminolysed at room temperature over 48 hours. The apparent loading achieved was about 10% (0.03 mmol/g), although it is possible that much lower loading was in fact achieved.
We have also obtained a yeast strain developed by Mansuy et al (Sari et al. Biochemistry 35(22):7204-7213, June 1996; incorporated herein by reference) in which transcription of the NOS gene is under the control of the Gal10 promoter and is therefore inducible (and is referred to as iNOS). We grew the yeast cells in glucose media (SGI medium containing 7 g/L yeast nitrogen base without amino acids, 1 g/L casamino acids, 20 g/L glucose, and 50 mg/L tryptophan, at 30 ° C.) so that expression of the iNOS gene was repressed. The cells were harvested and washed with medium lacking any sugar (7 g/L yeast nitrogen base without amino acids, 1 g/L casamino acids and 50 mg/L tryptophan), were resuspended in the same sugar-free medium, and were distributed into 96-well plates.
The TENTAGEL beads containing sensor were washed with CH2Cl2, THF, DMF, i-PrOH, MeOH, EtOH, and deionized water, and were dried. 10 μl of sensor beads in sugar-free medium were added to wells containing 170 μl of yeast culture (20-30 beads per well). […]

O=C[C@H](O)[C@@H](O)[C@@H](O)[C@H](O)CO [galactose]
color change of NO sensor beads exposed to induced cells (iNOS reporter expression): distinct color change (green ->yellow)
